Reference: PubChem BioAssay (NCI)
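Dose response: 5 concentrations. Exposure: 48 h. Format: 96-well plates. Endpoint: linear interpolation; highest concentration if not reached. At the TGI there is no net growth.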

Legend:
Test in all cases: NCI anticancer screen, dose series, 48 h
SR leukemia = test system: SR leukemia
SK-OV-3 ovarian = test system: SK-OV-3 ovarian
UO-31 renal = test system: UO-31 renal
K-562 leukemia = test system: K-562 leukemia
SF-539 CNS = test system: SF-539 CNS
HT29 colon = test system: HT29 colon
HOP-62 NSCLC = test system: HOP-62 NSCLC
EKVX NSCLC = test system: EKVX NSCLC
IGROV1 ovarian = test system: IGROV1 ovarian
A549 NSCLC = test system: A549 NSCLC
U251 CNS = test system: U251 CNS
CCRF-CEM leukemia = test system: CCRF-CEM leukemia
MDA-MB-435 = test system: MDA-MB-435
NCI/ADR-RES ovarian = test system: NCI/ADR-RES ovarian
HS 578T breast = test system: HS 578T breast

## [N-]=[N+]=CC(=O)CCC(=O)N(c1ccccc1)c1ccccc1
SR leukemia
  TGI: > 10 µM
SK-OV-3 ovarian
  TGI: > 10 µM
UO-31 renal
  TGI: > 10 µM
K-562 leukemia
  TGI: > 10 µM
SF-539 CNS
  TGI: > 10 µM
HT29 colon
  TGI: > 10 µM
HOP-62 NSCLC
  TGI: > 10 µM
EKVX NSCLC
  TGI: > 10 µM
IGROV1 ovarian
  TGI: > 10 µM
A549 NSCLC
  TGI: > 10 µM
U251 CNS
  TGI: > 10 µM
CCRF-CEM leukemia
  TGI: > 10 µM
MDA-MB-435
  TGI: > 10 µM

## COc1ccc(-c2cc(=O)c3c(O)cc(O)cc3o2)c(OC)c1OC
SK-OV-3 ovarian
  TGI: > 100 µM
K-562 leukemia
  TGI: > 100 µM
SF-539 CNS
  TGI: > 100 µM
HT29 colon
  TGI: > 100 µM
HOP-62 NSCLC
  TGI: > 100 µM
EKVX NSCLC
  TGI: > 100 µM
IGROV1 ovarian
  TGI: > 100 µM
A549 NSCLC
  TGI: > 100 µM
CCRF-CEM leukemia
  TGI: > 100 µM

## CCCCC(=O)Nc1ccc2c(C)cc(-c3ccc(-c4cc(-c5ccc(C)cc5)cc(-c5ccc(-c6cc(C)c7ccc(NC(=O)CCCC)nc7n6)cc5)n4)cc3)nc2n1
SK-OV-3 ovarian
  TGI: > 100 µM
UO-31 renal
  TGI: > 100 µM
K-562 leukemia
  TGI: > 100 µM
NCI/ADR-RES ovarian
  TGI: > 100 µM
HOP-62 NSCLC
  TGI: > 100 µM
EKVX NSCLC
  TGI: > 100 µM
A549 NSCLC
  TGI: > 100 µM
U251 CNS
  TGI: > 100 µM
CCRF-CEM leukemia
  TGI: > 100 µM
MDA-MB-435
  TGI: > 100 µM

## CC(=O)/C(C=Nc1c(C)n(C)n(C)c1=O)=C(/O)c1ccccc1
SR leukemia
  TGI: > 50 µM
SK-OV-3 ovarian
  TGI: > 50 µM
UO-31 renal
  TGI: > 50 µM
K-562 leukemia
  TGI: > 50 µM
SF-539 CNS
  TGI: > 50 µM
HT29 colon
  TGI: > 50 µM
HOP-62 NSCLC
  TGI: > 50 µM
EKVX NSCLC
  TGI: > 50 µM
IGROV1 ovarian
  TGI: > 50 µM
HS 578T breast
  TGI: > 50 µM
A549 NSCLC
  TGI: > 50 µM
U251 CNS
  TGI: > 50 µM
CCRF-CEM leukemia
  TGI: > 50 µM
MDA-MB-435
  TGI: > 50 µM

## O=c1c2ccccc2[nH]c2c(Cl)cc(Cl)c(N3CCCCC3)c12
SR leukemia
  TGI: > 100 µM
SK-OV-3 ovarian
  TGI: > 100 µM
UO-31 renal
  TGI: 55.5 µM
K-562 leukemia
  TGI: > 10 µM
SF-539 CNS
  TGI: 46.6 µM
HT29 colon
  TGI: 32.6 µM
NCI/ADR-RES ovarian
  TGI: 83.4 µM
HOP-62 NSCLC
  TGI: > 100 µM
EKVX NSCLC
  TGI: > 100 µM
IGROV1 ovarian
  TGI: 48.2 µM
A549 NSCLC
  TGI: > 100 µM
U251 CNS
  TGI: 62.4 µM
CCRF-CEM leukemia
  TGI: > 10 µM
MDA-MB-435
  TGI: 55.8 µM

## COC(=O)/C(C#N)=C(\N)c1c(C)c2ccccc2oc1=N
SR leukemia
  TGI: > 100 µM
SK-OV-3 ovarian
  TGI: > 100 µM
K-562 leukemia
  TGI: > 100 µM
SF-539 CNS
  TGI: > 100 µM
HOP-62 NSCLC
  TGI: > 100 µM
EKVX NSCLC
  TGI: > 100 µM
IGROV1 ovarian
  TGI: > 100 µM
HS 578T breast
  TGI: > 100 µM
A549 NSCLC
  TGI: > 100 µM
U251 CNS
  TGI: > 100 µM
MDA-MB-435
  TGI: > 100 µM

## CC[C@@]1(CCC(=O)NCCc2c[nH]c3ccccc23)CCC(=O)N2CCc3c([nH]c4ccccc34)[C@H]21
SK-OV-3 ovarian
  TGI: > 100 µM
UO-31 renal
  TGI: > 100 µM
K-562 leukemia
  TGI: > 100 µM
SF-539 CNS
  TGI: 61.3 µM
NCI/ADR-RES ovarian
  TGI: 33.4 µM
HOP-62 NSCLC
  TGI: > 100 µM
EKVX NSCLC
  TGI: > 100 µM
IGROV1 ovarian
  TGI: 30 µM
A549 NSCLC
  TGI: > 100 µM
U251 CNS
  TGI: > 100 µM
CCRF-CEM leukemia
  TGI: > 100 µM
MDA-MB-435
  TGI: 47.1 µM

## COc1cccc(NC(=O)C(=O)C2C=CCS2(=O)=O)c1 (stereo unspecified)
SR leukemia
  TGI: > 100 µM
SK-OV-3 ovarian
  TGI: > 100 µM
UO-31 renal
  TGI: > 100 µM
K-562 leukemia
  TGI: > 100 µM
SF-539 CNS
  TGI: > 100 µM
HT29 colon
  TGI: > 100 µM
HOP-62 NSCLC
  TGI: > 100 µM
EKVX NSCLC
  TGI: > 100 µM
IGROV1 ovarian
  TGI: > 100 µM
A549 NSCLC
  TGI: > 100 µM
U251 CNS
  TGI: > 100 µM
CCRF-CEM leukemia
  TGI: > 100 µM

## c1ccc([P+](c2ccccc2)(c2ccccc2)C2c3ccccc3-c3ccccc32)cc1
SK-OV-3 ovarian
  TGI: 4.33 µM
UO-31 renal
  TGI: 8.03 µM
K-562 leukemia
  TGI: > 100 µM
SF-539 CNS
  TGI: 6.98 µM
HT29 colon
  TGI: 4.04 µM
NCI/ADR-RES ovarian
  TGI: 41.9 µM
HOP-62 NSCLC
  TGI: 4.7 µM
IGROV1 ovarian
  TGI: 13.6 µM
HS 578T breast
  TGI: 5.75 µM
A549 NSCLC
  TGI: 14.3 µM
U251 CNS
  TGI: 4.12 µM
CCRF-CEM leukemia
  TGI: 7.61 µM
MDA-MB-435
  TGI: 3.18 µM

## O=c1ccnc2ccc3n[nH][nH]c3c12
SK-OV-3 ovarian
  TGI: > 100 µM
K-562 leukemia
  TGI: > 100 µM
SF-539 CNS
  TGI: > 100 µM
HT29 colon
  TGI: > 100 µM
HOP-62 NSCLC
  TGI: > 100 µM
EKVX NSCLC
  TGI: > 100 µM
IGROV1 ovarian
  TGI: > 100 µM
A549 NSCLC
  TGI: > 100 µM
U251 CNS
  TGI: > 100 µM
CCRF-CEM leukemia
  TGI: > 100 µM

## CN(C(=O)c1ccco1)C(=S)N1CCN(c2ccccn2)CC1
SK-OV-3 ovarian
  TGI: > 100 µM
UO-31 renal
  TGI: > 100 µM
K-562 leukemia
  TGI: > 100 µM
SF-539 CNS
  TGI: > 100 µM
HT29 colon
  TGI: > 100 µM
HOP-62 NSCLC
  TGI: > 100 µM
IGROV1 ovarian
  TGI: > 100 µM
A549 NSCLC
  TGI: > 100 µM
U251 CNS
  TGI: > 100 µM
CCRF-CEM leukemia
  TGI: > 100 µM

## CC1C(c2ccccc2O)c2cc3c(cc2OC1N1CCOCC1)OCO3 (stereo unspecified)
SR leukemia
  TGI: 29.5 µM
SK-OV-3 ovarian
  TGI: > 100 µM
UO-31 renal
  TGI: > 100 µM
K-562 leukemia
  TGI: 90.6 µM
SF-539 CNS
  TGI: 46.5 µM
HT29 colon
  TGI: 68.4 µM
HOP-62 NSCLC
  TGI: 35.8 µM
EKVX NSCLC
  TGI: > 100 µM
IGROV1 ovarian
  TGI: > 100 µM
HS 578T breast
  TGI: 57.9 µM
A549 NSCLC
  TGI: 80.7 µM
U251 CNS
  TGI: 64.7 µM
CCRF-CEM leukemia
  TGI: 61.3 µM
MDA-MB-435
  TGI: 82.8 µM

## COC(=O)C1C=CCON2CCc3c(n(S(=O)(=O)c4ccccc4)c4ccccc34)C12 (stereo unspecified)
SR leukemia
  TGI: > 100 µM
SK-OV-3 ovarian
  TGI: > 85.7 µM
UO-31 renal
  TGI: > 100 µM
K-562 leukemia
  TGI: > 60.9 µM
SF-539 CNS
  TGI: > 16.2 µM
HT29 colon
  TGI: > 100 µM
HOP-62 NSCLC
  TGI: > 55.5 µM
EKVX NSCLC
  TGI: > 84.8 µM
IGROV1 ovarian
  TGI: > 68.2 µM
A549 NSCLC
  TGI: > 100 µM
U251 CNS
  TGI: > 42.1 µM
CCRF-CEM leukemia
  TGI: > 71.1 µM

## CC1=CCC2CC1NC(=O)CCOCCC(=O)NC2(C)C (stereo unspecified)
SR leukemia
  TGI: > 100 µM
SK-OV-3 ovarian
  TGI: > 100 µM
UO-31 renal
  TGI: > 100 µM
K-562 leukemia
  TGI: > 100 µM
SF-539 CNS
  TGI: > 100 µM
HT29 colon
  TGI: > 100 µM
NCI/ADR-RES ovarian
  TGI: > 100 µM
A549 NSCLC
  TGI: > 100 µM
U251 CNS
  TGI: > 100 µM
CCRF-CEM leukemia
  TGI: > 100 µM
MDA-MB-435
  TGI: > 100 µM

## COc1c2c(cc3c1C(=O)Cc1ccc4c(c1CN(C)CC3)OCO4)OCO2
SR leukemia
  TGI: > 100 µM
SK-OV-3 ovarian
  TGI: > 100 µM
UO-31 renal
  TGI: > 100 µM
K-562 leukemia
  TGI: > 100 µM
SF-539 CNS
  TGI: > 100 µM
HT29 colon
  TGI: > 100 µM
HOP-62 NSCLC
  TGI: > 100 µM
EKVX NSCLC
  TGI: > 100 µM
IGROV1 ovarian
  TGI: > 100 µM
A549 NSCLC
  TGI: > 100 µM
U251 CNS
  TGI: > 100 µM
CCRF-CEM leukemia
  TGI: > 100 µM

## O=C1NC(=S)NC(=O)C1=C/C=C/c1ccc([N+](=O)[O-])cc1
SK-OV-3 ovarian
  TGI: 36 µM
UO-31 renal
  TGI: 33.5 µM
K-562 leukemia
  TGI: > 100 µM
SF-539 CNS
  TGI: 28.8 µM
HT29 colon
  TGI: 58.7 µM
NCI/ADR-RES ovarian
  TGI: 46.8 µM
HOP-62 NSCLC
  TGI: 34.9 µM
EKVX NSCLC
  TGI: 36.7 µM
IGROV1 ovarian
  TGI: 28.2 µM
HS 578T breast
  TGI: 44.6 µM
A549 NSCLC
  TGI: 50.4 µM
U251 CNS
  TGI: 19.6 µM
MDA-MB-435
  TGI: 28.3 µM

## O=C1/C(=C/c2ccc(Cl)cc2)CSC/C1=C\c1ccc(Cl)cc1
SR leukemia
  TGI: 8.15 µM
SK-OV-3 ovarian
  TGI: 16.5 µM
UO-31 renal
  TGI: 3.93 µM
K-562 leukemia
  TGI: 10.1 µM
SF-539 CNS
  TGI: 9.26 µM
HT29 colon
  TGI: 4.81 µM
NCI/ADR-RES ovarian
  TGI: > 100 µM
HOP-62 NSCLC
  TGI: 16.2 µM
EKVX NSCLC
  TGI: 41.7 µM
IGROV1 ovarian
  TGI: 3.65 µM
A549 NSCLC
  TGI: 10.1 µM
U251 CNS
  TGI: 3.04 µM
CCRF-CEM leukemia
  TGI: 63.9 µM

## S=C(N1CCN(c2ccccc2)CC1)N1CCN(c2ccccc2)CC1
SK-OV-3 ovarian
  TGI: > 100 µM
UO-31 renal
  TGI: > 100 µM
K-562 leukemia
  TGI: > 100 µM
HT29 colon
  TGI: > 100 µM
NCI/ADR-RES ovarian
  TGI: > 100 µM
HOP-62 NSCLC
  TGI: > 100 µM
EKVX NSCLC
  TGI: > 100 µM
IGROV1 ovarian
  TGI: > 100 µM
HS 578T breast
  TGI: > 100 µM
A549 NSCLC
  TGI: > 100 µM
U251 CNS
  TGI: > 100 µM
CCRF-CEM leukemia
  TGI: 68.7 µM
MDA-MB-435
  TGI: > 100 µM
